The source of these data is patent publication US10077436B2, “Beta-glucosidase enzymes for increased biomass saccharification” (Edeniq, Inc., priority 2013, dated 2018).

Each structure is given as a SMILES string.

Assay [1] has as its system S-BG (Novozymes SP188 from Sigma), commercial beta-glucosidase. Briefly: BG kinetics, pNPG hydrolysis assay with glucose as competitive inhibitor, S-BG. The assay is classed as biochemical. The conditions noted are these: pH 5.0, 50° C. The source says: The kinetic properties of beta glucosidase are important for cellulosic hydrolysis, since in commercial situations a wide range of substrate concentrations and different product inhibition conditions will be encountered. In this example, a Michaelis-Menten kinetics model was used to describe BG kinetics. To determine these kinetic properties, BG activity assays using standard substrates pNPG and cellobiose were employed. yEdQ745-BG (wild type) and yEdQ885-BG (improved), were compared with two commercial BGs, A-BG (Accellerase®) BG from Dupont) and S-BG (Novozymes SP188 from Sigma).
BG activity assay using pNPG is one of the two commonly used standard assays to measure BG activity, which utilizes hydrolysis of p-nitrophenyl-β-D-glucopyranoside (pNPG) by BG into a yellow colored product, p-nitrophenol (pNP), that has a strong absorbance at 405 nm. One pNPG unit is defined as the amount of enzyme that produces 1 μmol of pNP per min. Briefly, to determine BG activity, 25 μL of diluted enzyme in 200 mM sodium acetate buffer (pH 5.0) was mixed with 25 μL of the same buffer and 25 μL of RO water (or glucose solution for the kinetic study) and the mixture was preincubated at 50° C. for 5 min. The reaction was initiated by adding 25 μL of 10 mM pNPG in 200 mM sodium acetate buffer (pH 5.0) and the mixture was incubated at 50° C. for 10 min. The reaction was then terminated by adding 100 μL of 0.25 M sodium carbonate, and the amount of pNP produced was determined by measuring absorbance at 405 nm using a predetermined calibration curve.
The range of substrate concentration was chosen to show detectable activity at the lowest concentration and saturation stage at high substrate concentration. The upper limit of inhibitor (glucose) level was chosen to get as close as possible to the real conditions during saccharification (˜4% w/v glucose) and have a detectable residual activity.
To determine the kinetic properties, a competitive inhibition mechanism was hypothesized as proposed in the literature (Chauve et al, 2010; Krogh et al, 2010). The Michaelis-Menten equation with the competitive inhibition term can be expressed in Equation (1), where [S] is the substrate concentration (mM), [I] is the inhibitor concentration (mM), V is the rate of product formation (mM/min), Vmax is the maximal rate of product formation (mM/min), Km is the Michaelis-Menten constant and Ki is the inhibition constant. The turnover number, Kcat, can be calculated by Equation (2), where [Et] is the total amount of enzyme.
Conventionally, linearization methods can be used to determine the kinetic parameters based on Equation (1). Three common linear plots used are Lineweaver-Burke, Eadie-Hofstee and Hanes plots (Rogers and Gibon, 2009). However, these linearized versions of the Michaelis-Menten equation often produce substantial errors in parameter estimation. […] All of the activity data at different substrate levels and different inhibitor levels were fit simultaneously according to the full nonlinear equation for competitive enzyme inhibition as expressed in Equation (1). Thus, Vmax, Km and Ki can be determined simultaneously from this fitting process, and Km/Ki can then be calculated. Kcat can be obtained by Equation (2) and Kcat/Km can be calculated accordingly.
The above experimental data were fit in the competitive inhibition model as expressed in Equation (1) by simultaneous nonlinear regression. The order of maximum velocity (Vmax) is A-BG>yEdQ885-BG>S-BG≈yEdQ745-BG. […] Nevertheless, the in-house BGs have much higher dissociation constant for inhibitor (Ki), indicating higher tolerance to product inhibition. Consistent with Vmax, the order of turnover number (Kcat) is A-BG>yEdQ885-BG>S-BG≈yEdQ745-BG. With much lower Km and much higher Kcat, A-BG has a considerably higher catalytic efficiency (Kcat/Km) than the other enzymes. The catalytic efficiency of S-BG and yEdQ885-BG is quite close, which is higher than that of yEdQ745-BG. […]

For assay [2], the system named is A-BG (Accellerase® BG from DuPont), commercial beta-glucosidase. In words: BG kinetics, cellobiose hydrolysis assay (HPLC) with glucose as competitive inhibitor, A-BG. The assay is classed as biochemical. The source says: The kinetic properties of beta glucosidase are important for cellulosic hydrolysis, since in commercial situations a wide range of substrate concentrations and different product inhibition conditions will be encountered. In this example, a Michaelis-Menten kinetics model was used to describe BG kinetics.
BG activity assay using cellobiose is the other standard assay to measure BG or cellobiase activity, which utilizes hydrolysis of cellobiose by cellobiase into two molecules of glucose, the last step of enzymatic hydrolysis of cellulose. One cellobiase unit (commonly termed as CBU) is defined as the amount of enzyme that converts […] of cellobiose or produces 2 μmol of glucose per min. Briefly, to determine BG activity, 25 μL of diluted enzyme in 50 mM citrate buffer (pH 4.8) equilibrated to 50° C. was mixed with 25 μL cellobiose (or cellobiose/glucose mixture for the kinetic study) to start the reaction. The mixture was incubated at 50° C. for 10 min, and the reaction was terminated by incubating the mixture at 99° C. for 5 min. Different methods are available to measure the glucose produced in the assays. For the kinetic study, HPLC was used.
To determine kinetic properties using cellobiose substrate, duplicate assays with cellobiose concentrations ranging from 0.47 to 15 mM and glucose concentrations of 0, 0.9, 4.5, 6.75, and 8.1 (for A-BG) or 9 (for all the other three BGs) g/L were performed. As for pNPG substrate, the range of cellobiose substrate concentration was chosen to show detectable activity at the lowest substrate concentration and saturation stage at high substrate concentration. […] Moreover, theoretically there are two ways to measure BG activity by HPLC when cellobiose is used as the substrate: tracking consumption of cellobiose or tracking production of glucose. […] In Table 3, A % is defined as follows and is an indicator of measurement sensitivity, since the difference of substrate or product concentrations before and after reaction was used to determine BG activity. Δ%=(start conc. of cellobiose−end conc. of cellobiose)/start conc. of cellobiose×100% (3) Δ%=(end conc. of glucose−start conc. of glucose)/start conc. of glucose×100% (4)
A similar simultaneous nonlinear regression method based on the competitive inhibition equation expressed in Equation (1) was used to determine kinetic parameters of BG towards cellobiose.
The specific activity used here was determined by the initial velocity approach that is required by implementing Michaelis-Menten model (Copeland, 2000). The specific activity was determined by measuring consumption of cellobiose in the first 10 min of reaction and was expressed as μmol min^−1 mg^−1, where mg^−1 means per mg of total protein. The relative activity was determined based on the maximum activity obtained in the absence of initial glucose inhibition.
The above experimental data were fit in the competitive inhibition model as expressed in Equation (1) by simultaneous nonlinear regression.

A word on the Ki: it is a measure of affinity in units of concentration, obtained from inhibition or displacement. Low values mean a stronger hold on the target, high ones a looser hold on the target. As to `OC[C@H]1OC(O)[C@H](O)[C@@H](O)[C@@H]1O` (some centres unmarked) [glucose], the Km/Ki in assay [1] (inhibitor influence, Km for pNPG / Ki for glucose) is recorded as 0.52; in assay [2] (inhibitor influence, Km for cellobiose / Ki for glucose, pH 4.8, 50° C.), 1.26. In addition, the Ki worked out at 0.81 ± 0.11 mM in assay [1] (pNPG substrate, competitive inhibition) and 5.2 ± 0.63 mM in assay [2] (cellobiose substrate, competitive inhibition, pH 4.8, 50° C.). In addition, the “loss of activity towards cellobiose under glucose inhibition” value in assay [2] (9 g/L (0.9% w/v) initial glucose, cellobiose substrate) is “completely lost its activity”.
